Experimental data: patent US20250282794A1 (CURADEV PHARMA LTD, priority 2022, published 2025)
pIC50: −log10 of the molar value.

Target: recombinant full length HPK-1 enzyme (Homo sapiens (Human), UniProt Q92918)
Test: HPK-1 biochemical enzyme assay (ADP-Glo kinase inhibition)
Details: recombinant full length HPK-1 6.8 nM, 10 μM ATP, 12.5 μM MBP, 30 mins at 25° C.
How it was run: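 ADP-Glo readout of ADP formed after a 30 min, 25° C. reaction of 6.8 nM full-length HPK-1 with swine myelin basic protein (12.5 μM) and ATP (10 μM) in Tris pH 7.4 buffer with MgCl2, DTT and BSA. Ten compound concentrations tested; percent inhibition set against vehicle (0%) and no-enzyme (100%) controls gave IC50.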

Chain of recombinant full length HPK-1 enzyme (Q92918 whole entry, species assumed): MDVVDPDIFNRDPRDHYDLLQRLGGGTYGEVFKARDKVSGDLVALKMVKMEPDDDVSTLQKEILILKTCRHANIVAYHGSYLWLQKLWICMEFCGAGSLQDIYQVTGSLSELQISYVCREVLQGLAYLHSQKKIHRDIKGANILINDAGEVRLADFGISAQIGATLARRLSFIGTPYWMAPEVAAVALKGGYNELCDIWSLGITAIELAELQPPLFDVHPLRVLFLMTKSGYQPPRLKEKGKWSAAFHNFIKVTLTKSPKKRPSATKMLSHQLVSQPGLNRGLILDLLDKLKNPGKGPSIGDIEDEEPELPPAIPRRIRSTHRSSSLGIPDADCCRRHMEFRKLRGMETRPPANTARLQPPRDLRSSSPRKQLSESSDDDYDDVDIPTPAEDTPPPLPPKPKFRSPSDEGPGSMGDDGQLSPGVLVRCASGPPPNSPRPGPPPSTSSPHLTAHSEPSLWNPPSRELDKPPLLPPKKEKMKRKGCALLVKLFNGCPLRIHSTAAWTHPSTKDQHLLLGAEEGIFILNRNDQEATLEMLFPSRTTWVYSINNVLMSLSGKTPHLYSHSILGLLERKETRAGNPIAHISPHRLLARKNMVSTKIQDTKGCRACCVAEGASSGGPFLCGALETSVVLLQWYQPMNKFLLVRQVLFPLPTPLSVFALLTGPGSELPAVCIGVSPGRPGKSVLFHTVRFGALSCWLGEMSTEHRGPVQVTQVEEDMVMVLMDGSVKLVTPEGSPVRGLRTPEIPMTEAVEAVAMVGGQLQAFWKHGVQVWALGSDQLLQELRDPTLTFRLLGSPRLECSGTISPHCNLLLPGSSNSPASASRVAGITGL

| SMILES | pIC50 |
| --- | --- |
| Cc1c(Nc2cc[nH]c(=O)c2C(=O)Nc2ccc(N3CCN(c4cscn4)CC3)cc2)cnc2c1NCCO2 [Example 367, 4-((8-methyl-2,3-dihydro-1H-pyrido[2,3-b][1,4]oxazin-7-yl)amino)-2-oxo-N-(4-(4-(thiazol-4-yl)piperazin-1-yl)phenyl)-1,2-dihydropyridine-3-carboxamide] | 7.00 to 8.00 |
| Cc1c(Nc2cc[nH]c(=O)c2C(=O)Nc2ccc(N3CCN(C(=O)N4CCC4)CC3)cc2)cnc2c1NCCO2 [Example 325, N-(4-(4-(azetidine-1-carbonyl)piperazin-1-yl)phenyl)-4-((8-methyl-2,3-dihydro-1H-pyrido[2,3-b][1,4]oxazin-7-yl)amino)-2-oxo-1,2-dihydropyridine-3-carboxamide] | ≥ 8.00 |
| CCC1CNc2c(ncc(Nc3cc[nH]c(=O)c3C(=O)Nc3ccc(N4CCN(C)CC4)cc3)c2C)O1 (stereo not shown) [Example 188, 4-((3-ethyl-8-methyl-2,3-dihydro-1H-pyrido[2,3-b][1,4]oxazin-7-yl)amino)-N-(4-(4-methylpiperazin-1-yl)phenyl)-2-oxo-1,2-dihydropyridine-3-carboxamide] | 7.00 to 8.00 |
| Cc1c(Nc2cc[nH]c(=O)c2C(=O)Nc2ccc(N3CCC(N)C3)cc2)cnc2c1NCCO2 (stereo not shown) [Example 395, N-(4-(3-aminopyrrolidin-1-yl)phenyl)-4-((8-methyl-2,3-dihydro-1H-pyrido[2,3-b][1,4]oxazin-7-yl)amino)-2-oxo-1,2-dihydropyridine-3-carboxamide] | 7.00 to 8.00 |
| Cc1c(Nc2cc[nH]c(=O)c2C(=O)Nc2ccc(N3CCN(C(=O)c4ccn(C)n4)CC3)cc2)cnc2c1NCCO2 [Example 322, N-(4-(4-(1-methyl-1H-pyrazole-3-carbonyl)piperazin-1-yl)phenyl)-4-((8-methyl-2,3-dihydro-1H-pyrido[2,3-b][1,4]oxazin-7-yl)amino)-2-oxo-1,2-dihydropyridine-3-carboxamide] | 7.00 to 8.00 |
| Cc1c(Nc2cc[nH]c(=O)c2C(=O)Nc2ccc(N3CCN(CCO)CC3)c(F)c2)cnc2c1NCC(C)O2 (stereo not shown) [Example 186, 4-((3,8-dimethyl-2,3-dihydro-1H-pyrido[2,3-b][1,4]oxazin-7-yl)amino)-N-(3-fluoro-4-(4-(2-hydroxyethyl)piperazin-1-yl)phenyl)-2-oxo-1,2-dihydropyridine-3-carboxamide] | ≥ 8.00 |
| Cc1c(Nc2cc[nH]c(=O)c2C(=O)Nc2ccc(N3CCN(C)CC3)cc2)cnc2c1NCC(C(C)C)O2 (stereo not shown) [Example 189, 4-((3-isopropyl-8-methyl-2,3-dihydro-1H-pyrido[2,3-b][1,4]oxazin-7-yl)amino)-N-(4-(4-methylpiperazin-1-yl)phenyl)-2-oxo-1,2-dihydropyridine-3-carboxamide] | 7.00 to 8.00 |
| CCN1CCN(c2ccc(NC(=O)c3c(Nc4cnc5c(c4C)NCC(C)O5)cc[nH]c3=O)cc2F)CC1 (stereo not shown) [Example 386, 4-((3,8-dimethyl-2,3-dihydro-1H-pyrido[2,3-b][1,4]oxazin-7-yl)amino)-N-(4-(4-ethylpiperazin-1-yl)-3-fluorophenyl)-2-oxo-1,2-dihydropyridine-3-carboxamide] | ≥ 8.00 |
| Cc1c(Nc2cc[nH]c(=O)c2C(=O)Nc2ccc(N3CCN(C)CC3)cc2)cnc2c1NCC1(CC1)O2 [Example 190, 4-((8′-methyl-1′,2′-dihydrospiro[cyclopropane-1,3′-pyrido[2,3-b][1,4]oxazin]-7′-yl)amino)-N-(4-(4-methylpiperazin-1-yl)phenyl)-2-oxo-1,2-dihydropyridine-3-carboxamide] | 7.00 to 8.00 |
| COc1ccc(Oc2ccc(NC(=O)c3c(Nc4cnc5c(c4C)NCCO5)cc[nH]c3=O)cc2)cc1 [Example 253, N-(4-(4-methoxyphenoxy)phenyl)-4-((8-methyl-2,3-dihydro-1H-pyrido[2,3-b][1,4]oxazin-7-yl)amino)-2-oxo-1,2-dihydropyridine-3-carboxamide] | 6.00 to 7.00 |
| CCN1CCN(c2c(F)cc(NC(=O)c3c(Nc4cnc5c(c4C)NCCO5)cc[nH]c3=O)cc2F)CC1 [Example 390, N-(4-(4-ethylpiperazin-1-yl)-3,5-difluorophenyl)-4-((8-methyl-2,3-dihydro-1H-pyrido[2,3-b][1,4]oxazin-7-yl)amino)-2-oxo-1,2-dihydropyridine-3-carboxamide] | 7.00 to 8.00 |
| Cc1c(Nc2cc[nH]c(=O)c2C(=O)Nc2ccc(N3CCN(c4ccnc(C(=O)N(C)C)c4)CC3)cc2)cnc2c1NCCO2 [Example 365, N,N-dimethyl-4-(4-(4-(4-((8-methyl-2,3-dihydro-1H-pyrido[2,3-b][1,4]oxazin-7-yl)amino)-2-oxo-1,2-dihydropyridine-3-carboxamido)phenyl)piperazin-1-yl)picolinamide] | 7.00 to 8.00 |
| Cc1c(Nc2cc[nH]c(=O)c2C(=O)Nc2ccc(N3CCN(C(C)C)CC3)c(F)c2)cnc2c1NCC(C)O2 (stereo not shown) [Example 183, 4-((3,8-dimethyl-2,3-dihydro-1H-pyrido[2,3-b][1,4]oxazin-7-yl)amino)-N-(3-fluoro-4-(4-isopropylpiperazin-1-yl)phenyl)-2-oxo-1,2-dihydropyridine-3-carboxamide] | ≥ 8.00 |

Results, then the compound that gave them:

| pIC50 | SMILES |
| --- | --- |
| ≥ 8.00 | Cc1c(Nc2cc[nH]c(=O)c2C(=O)Nc2ccc(N3CCN4CCC[C@@H]4C3)cc2)cnc2c1NCCO2 [Example 329, (R)-N-(4-(hexahydropyrrolo[1,2-a]pyrazin-2(1H)-yl)phenyl)-4-((8-methyl-2,3-dihydro-1H-pyrido[2,3-b][1,4]oxazin-7-yl)amino)-2-oxo-1,2-dihydropyridine-3-carboxamide] |
| 7.00 to 8.00 | Cc1nc2ccc(NC(=O)c3c(Nc4cnc5c(c4C)NCCO5)cc[nH]c3=O)cc2s1 [Example 249, 4-((8-methyl-2,3-dihydro-1H-pyrido[2,3-b][1,4]oxazin-7-yl)amino)-N-(2-methylbenzo[d]thiazol-6-yl)-2-oxo-1,2-dihydropyridine-3-carboxamide] |
| 7.00 to 8.00 | Cc1c(Nc2cc[nH]c(=O)c2C(=O)Nc2ccc3cn[nH]c3c2)cnc2c1NCCO2 [Example 237, N-(1H-indazol-6-yl)-4-((8-methyl-2,3-dihydro-1H-pyrido[2,3-b][1,4]oxazin-7-yl)amino)-2-oxo-1,2-dihydropyridine-3-carboxamide] |
| 7.00 to 8.00 | COCCN1CCN(c2ccc(NC(=O)c3c(Nc4cnc5c(c4C)NCCO5)nc[nH]c3=O)cc2)CC1 [Example 413, N-(4-(4-(2-methoxyethyl)-piperazin-1-yl)phenyl)-4-((8-methyl-2,3-dihydro-1H-pyrido[2,3-b][1,4]oxazin-7-yl)amino)-6-oxo-1,6-dihydropyrimidine-5-carboxamide] |
| ≥ 8.00 | Cc1c(Nc2cc[nH]c(=O)c2C(=O)Nc2ccc(N3CCN(C4CCCC4)CC3)cc2)cnc2c1NCC(C)O2 (stereo not shown) [Example 187, N-(4-(4-cyclopentylpiperazin-1-yl)phenyl)-4-((3,8-dimethyl-2,3-dihydro-1H-pyrido[2,3-b][1,4]oxazin-7-yl)amino)-2-oxo-1,2-dihydropyridine-3-carboxamide] |
| ≥ 8.00 | Cc1c(Nc2cc[nH]c(=O)c2C(=O)Nc2ccc(N3CCN(CCCO)CC3)cc2)cnc2c1NCCO2 [Example 175, N-(4-(4-(3-hydroxypropyl)piperazin-1-yl)phenyl)-4-((8-methyl-2,3-dihydro-1H-pyrido[2,3-b][1,4]oxazin-7-yl)amino)-2-oxo-1,2-dihydropyridine-3-carboxamide] |
